# “Also recorded” adds a separate entry of the source.
# Columns and labels:
# [1] = test system: cortical neurons isolated from embryonic day 18 rats; assay: glutamate-induced neuronal death in cultured cortical neurons; format: cell-based, rat; conditions: 24 hours pre-treatment, 300 uM glutamate for 24 hours
# Experimental: Primary cultured cells were used as a model to evaluate the subject small molecule effect on CNS. Glutamate neurotoxicity can be most directly studied using neurons prepared from the brain at the late embryonic stage and subsequently cultured for maturation. To examine the effect of the subject small molecules (E5A24 and E5A29) on glutamate-induced neuronal death, cortical neurons isolated from embryonic day 18 rats, were cultured for 10 days. Subsequently, neurons were treated for 24 hours with or without the subject small molecules, and further exposed to 300 uM glutamate for 24 hours. After glutamate was washed out, the cells were cultured for another 24 hours. During the glutamate challenge and subsequent culture, the subject small molecules were absent. Finally, the cell viability was examined.
# TF-1 and UT-7 cells = assay: biological testing in cell lines (cell proliferation assay and cell signaling assay); format: cell-based
# Description: Compounds identified in the initial screen were further tested for their biological activity in two assays: a cell proliferation assay and a cell signaling assay in TF-1 and UT-7 cells. The hit rate in cell proliferation was 0.16%; hit rate in cell signaling was 0.25%.
# At the end of the biological testing in cell lines TF-1 and UT-7, E4, E5, E5 analogs and E6 molecules were some of the compounds identified as showing the best activity.
# Compounds identified in the initial screen were further tested for their biological activity in two assays: a cell proliferation assay and a cell signaling assay in TF-1 cells. The hit rate in cell proliferation was 0.16%; hit rate in cell signaling was 0.25%.
# At the end of the biological testing in cell line, E4, E5, E5 analog, and E6 molecules were some of the compounds identified as showing the best activity.
# [2] = test system: Mouse or human bone marrow cells; assay: Formation of erythroid colonies (CFU-e, BFU-e) from bone marrow in methylcellulose; format: cell-based; conditions: mouse and human bone marrow
# Experimental: Mouse or human bone marrow cells were stimulated in methylcellulose for 7 days (mouse) or 14 days (human) with non-peptide EPO-R modulators. Formation of erythroid colonies was observed. (See FIGS. 6 to 8)
# (1) Dilute human bone marrow 1:1 with sterile PBS. (2) Slowly layer bone marrow into 50 ml tubes containing 20 ml of LSM Lymphocyte separation medium (ICN/Cappel—cat #50494). 50 ml bone marrow will yield 2 tubes. (3) Spin tubes at 2000 rpm for 30 minutes with brake off. (4) Slowly take out the middle layer using a 10 ml pipette and transfer into a new 50 ml tube. (5) Add PBS +0.5% BSA +5 mM EDTA to tube for washing. (6) Spin tube for 5 minutes at speed 4 with brake on. (7) Repeat wash step 2 more times. (8) After 3rd wash, resuspend pellet in SF Iscoves' MDM medium. (9) Count by diluting cells in 3% acetic acid. (10) Dilute cells to desired concentration (5×10^5 cells/ml) and seed onto methylcellulose.
# (1) Tubes containing 3.0 ml of methylcellulose medium (Stemcell Technology, cat #H4230) supplemented with 50 ng/ml hSCF are prepared. (Alternatively the methylcellulose could be supplemented with 50 ng/ml hSCF, 20 ng/ml of hIL-3 and hIL-6). (2) Compounds or EPO of desired concentrations are added to the tubes. […] Colonies are scored on day twelve.
# Bone marrow cells were isolated from mouse femurs. […] The colonies were scored on day seven. […]
# [3] = test system: carboplatin-treated 8 week old C57BL mice; assay: Carboplatin induced anemia model (hematocrit); format: in vivo, mouse
# Experimental: Mice were treated with Carboplatin agent (available from Sigma, used regularly in chemotherapy) and a drop in hematocrit was induced. […] (FIGS. 9-11)
# Determination of Effect of Non-peptide EPO-R Binding Small Molecule on Hematocrit in Carboplatin-Induced Anemia in 8 Week C57BI Male Mice
# Preparation of injection solutions: Vehicle—Saline with 0.1 mg/mL BSA; Add 30 mg of BSA to 300 mL Saline; Vacuum filter under sterile conditions in laminar flow hood; Aliquot the saline (0.1 mg/mL BSA) solution into mini-sorp tubes. At least 41×7 mL aliquots should be prepared. Place caps on the tubes and store refrigerated at 4° C.;
# Carboplatin—Dose of 120 mg/kg: Calculations for single injection given to 36 male mice (8 wks old˜25 g): […]×0.025 kg×36 mice=108 mg; Injections are delivered i.p. in a volume of 0.5 cc/mouse=0.5 cc/mouse×36 mice=18 cc; Carboplatin at 6 mg/mL for 36 mice: 108 mg/18 cc.; 120 mg/20 cc; On day of injection, add 120 mg carboplatin (Sigma #C2538) to 20 cc saline in a 100 cc beaker containing a stirring bar. Cover beaker with parafilm. Mix until the carboplatin has completely dissolved.
# 11 nmole/kg/mouse/day×0.025 kg×12 mice=3.3 nmoles/day; Injections are delivered i.p. in a volume of 0.5 cc/mouse/day=0.5 cc/mouse/day×12 mice=6 cc/day; non-peptide EPO-R binding small molecule for […]: 3.3 nmoles/6 cc each day: 3.85 nmole/7 cc each day; non-peptide EPO-R binding small molecule aliquot at 2 mM=2 nmole/uL; 3.85 nmole per day in 7 cc (0.55 nmole/mL); Therefore: 3.85 nmole divided by 2 nmole/uL stock=1.925 uL at 2 mM; Prepare in advance at least 10 aliquots of non-peptide EPO-R binding small molecule at 2 mM in small microfuge tubes, each with a volume of 2 uL. Freeze these aliquots; On each day of injections, add 1 thawed aliquot of the non-peptide EPO-R binding small molecule at 2 mM containing a 2 uL volume to a tube containing 7 cc of sterile saline (0.1 mg/mL BSA). […]
# [4] = test system: Bcl-xL protein in UT-7 and TF-1 cells; assay: up-regulation of Bcl-xL expression (immunoprecipitation, western blot); format: cell-based
# Experimental: When the subject compounds were tested for anti-apoptotic effect was evaluated, these antibodies were used: Anti-Bcl-XL/s antibody (Santa Cruz Biotechnology, SC-1041), Anti-Bcl-XL antibody (Santa Cruz Biotechnology, SC8392)
# A number of molecules of the subject invention were evaluated in in vitro systems that reflect the condition of cerebral ischemia and metabolic stress. Firstly, it is known that one of the mechanisms by which EPO prevents neuronal apoptosis is by up-regulating the expression levels of Bcl-x1 protein, which is a well-described anti-apoptotic protein. Thus, cells-lines that are known to be EPO responsive (UT-7 and TF-1, used in previous studies) were used as a cellular system to examine the small molecules' anti-apoptotic activity through EPO-R.
# The evaluation was performed by starving the cells, stimulating the cells with compounds at appropriate concentrations (or no stimulation for control samples) and immunoprecipitating the cell lysates with antibody specific to both forms (short and long) of Bcl-xL protein. The amount of Bcl-xL (long protein form, known to have anti-apoptotic activity) protein was evaluated by western blot analysis.
# [5] = test system: P-19 cells (a neural-like embryonal carcinoma cell line); assay: anti-apoptotic effect in P-19 cells upon withdrawal of serum; format: cell-based; conditions: treated 24 hours prior to serum withdrawal; serum withdrawn for 48 hours
# Experimental: Experiments were performed according to the described protocol. The anti-apoptotic effect of the subject small molecules was evaluated in P-19 cells (a neural-like embryonal carcinoma cell line) that undergo apoptosis upon withdrawal of serum. Briefly, cells were treated with small molecules for 24 hours prior to serum withdrawal. Serum was withdrawn for 48 hours in the presence or absence of a subject small molecule (EM5 and E5A24). At the end of that period, cell survival was evaluated. […] This Figure is representative of the experiment and of the subject small molecules. The experiments were performed according to literature procedures (Siren et. al., Proc. Nat. Acad. Sci. 98, 4044, 2001). Cell survival was determined according to the protocol described for cellular proliferation.
# EPO-R modulating domain = biological target: T1, EPO-R modulating domain (Homo sapiens, UniProt P19235); conditions: cited from earlier work
# T1 sequence (P19235 25-508): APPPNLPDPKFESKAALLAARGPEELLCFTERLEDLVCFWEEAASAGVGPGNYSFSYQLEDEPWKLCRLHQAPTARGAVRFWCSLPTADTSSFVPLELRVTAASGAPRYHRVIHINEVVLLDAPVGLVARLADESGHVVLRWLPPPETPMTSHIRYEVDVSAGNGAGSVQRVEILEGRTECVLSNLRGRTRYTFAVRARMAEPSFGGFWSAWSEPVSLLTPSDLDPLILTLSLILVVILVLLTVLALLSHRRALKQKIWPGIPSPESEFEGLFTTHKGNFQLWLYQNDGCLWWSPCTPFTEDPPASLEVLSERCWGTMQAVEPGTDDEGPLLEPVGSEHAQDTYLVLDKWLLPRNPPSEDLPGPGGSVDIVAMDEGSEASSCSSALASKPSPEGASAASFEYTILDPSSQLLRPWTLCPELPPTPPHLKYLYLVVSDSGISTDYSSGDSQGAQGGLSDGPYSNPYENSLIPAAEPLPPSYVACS
compound,measurement,setting,value
Cc1n[nH]c2c1C(c1ccco1)C1=C(CC(C)(C)CC1=O)N2 (stereo not drawn) [Compound E5A29],cell survival / glutamate induced neuronal death,[1],prevented glutamate induced neuronal death in a dose-responsive manner; also recorded: increased cell survival
same,increase of cell survival after glutamate challenge,[1],60%
Cn1ncc(S(=O)Oc2ccccc2)c(Cl)c1=O (stereo not drawn) [Compound E6],maximum activity compared to EPO natural hormone,TF-1 and UT-7 cells; cell line (TF-1 cells),maximum activity comparable to that of the maximum activity of EPO
same,maximum activity compared to EPO natural hormone,"TF-1 and UT-7 cells; cell lines TF-1 and UT-7, in the presence of low levels of EPO",maximum activity comparable to that of the maximum activity of EPO
same,CFU-e formation compared with EPO,[2],stimulate CFU-e formation to the same extent as EPO
same,cooperative effect with EPO on hematocrit levels,[3]; compound given i.p.,cooperative effect
same,hematocrit levels in animals treated with carboplatin,"[3]; mouse, in vivo",restore hematocrit levels
Cc1cc(NCC2CC2)n2nc(Nc3cc(Cl)ccc3C)nc2n1 [EM5],Bcl-xL expression,[4]; TF-1 cells,up-regulation of Bcl-xL expression
same,Bcl-xL expression,[4]; UT-7 cells,up-regulation of Bcl-xL expression
same,up-regulation of Bcl-xL protein,[4]; both cell lines (UT-7 and TF-1),induced up-regulation of Bcl-xL protein in a dose-responsive manner
same,cell survival / viability after withdrawal of serum,[5],protect cells from apoptosis; also recorded: increased cell viability
QRVEILEGRTECVLSNLRGRTRY (listed as Homo sapiens) [SEQ ID NO:1],modulation of the activity of the EPO-R,EPO-R modulating domain,modulation of the activity of the EPO-R in the presence or absence of the ligand

# Source: patent US20040116346A1, “Affinity small molecules for the EPO receptor” (priority 2002, published 2004)
